From US10577371B2, “Small molecule histone methyltransferase SUV39H1 inhibitor and uses thereof” (Augusta University Research Institute, Inc., priority 2017, dated 2020)

Experiments:
AB1-HA tumor model = details: CTX treatment at Day 9; cited from earlier work
[1] = background statement; cited from earlier work
[2] = system: H3K9me3 at the FAS promoter region in SW620 and LS411N cells; assay: ChIP of H3K9me3 at the FAS promoter region in colon carcinoma cells; format: cell-based, human; details: 25 and 250 nM for 2 days
Description: SW620 and LS411N cells were treated with F5446 at 25, and 250 nM for 2 days and analyzed by ChIP using H3K9me3-specific antibody. The H3K9me3 antibody-immunoprecipitated DNA was amplified by PCR with FAS promoter DNA-specific primers and normalized to input genomic DNA.

[3] = Toxicity of F5446 in mice: survival and serum liver enzyme profile; format: in vivo
Description: F5446 was injected into mice at a dose of 10 mg/kg body weight every 2 days for 6 days. Mouse survival was recorded. Serum was collected from the mice and analyzed for liver enzyme profiles at the University of Georgia Veterinary Diagnostic Laboratories.

[4] = system: Fas in SW620 and LS411N cells; assay: Fas protein level on tumor cell surface by flow cytometry; format: cell-based, human; details: 3 days, 25 and 250 nM
Description: SW620 and LS411N cells were cultured in the presence of F5446 for 3 days. Fas protein levels were analyzed by flow cytometry (FIG. 12A-12B).

SW620 and LS411N cells [5] = assay: Apoptosis of human colon carcinoma cells, PI/annexin V flow cytometry; format: cell-based; details: 0.01, 0.05, 0.25 and 1 μM for 2 days
Description: SW620 and LS411N cells were cultured in the presence of F5446 at doses of 0.01, 0.05, 0.25, and 1 μM for 2 days. Cells were stained with propidium iodide (“PI”) and annexin V and analyzed for apoptosis by flow cytometry.
Apoptotic cell death was calculated as the difference between the percentage of PI^+ Annexin V^+ cells in the presence of F5446 and the percentage of PI^+ Annexin V^+ cells in the absence of F5446.

[6] = system: CD3+ T cells from spleens of C57BL/6 mice; assay: H3K9me3 ChIP and effector expression in activated CD3+ T cells; format: cell-based; details: activated mouse CD3+ T cells
Description: CD3^+ T cells were purified from spleens of C57BL/6 mice. The cells were stimulated in anti-CD3/CD28-coated plates for 2 days in the absence or presence of F5446 (50 nM). The resting, stimulated and treated T cells were then analyzed by ChIP (Chromatin Immunoprecipitation) with anti-H3K9me3 antibody and gene-specific PCR primers.

[7] = biological target: T1, recombinant human SUV39H1 (Homo sapiens, UniProt O43463); assay: HMTase EC50 assay with recombinant human SUV39H1 (Reaction Biology Corp.); format: biochemical; details: 10-dose, 3-fold serial dilutions; S-(methyl-3H) Adenosyl-L-Methionine; H3 peptide (N1-21); read-out: EC50 against recombinant human SUV39H1 in vitro
T1 construct: purchased Reaction Biology Corp. (Malvern Pa.)
T1 sequence (O43463 1-412): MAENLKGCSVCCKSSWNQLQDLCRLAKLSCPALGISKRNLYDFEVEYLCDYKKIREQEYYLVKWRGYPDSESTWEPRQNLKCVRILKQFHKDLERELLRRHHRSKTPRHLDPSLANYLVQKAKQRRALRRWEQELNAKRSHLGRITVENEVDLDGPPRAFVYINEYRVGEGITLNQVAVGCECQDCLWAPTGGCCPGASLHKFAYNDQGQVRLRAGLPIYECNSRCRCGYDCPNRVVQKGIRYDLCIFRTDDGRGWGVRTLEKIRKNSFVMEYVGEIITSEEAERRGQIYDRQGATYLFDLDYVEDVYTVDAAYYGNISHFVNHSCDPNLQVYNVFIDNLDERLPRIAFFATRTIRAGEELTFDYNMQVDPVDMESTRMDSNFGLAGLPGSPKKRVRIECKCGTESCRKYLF
Description: F5446 was sent to Reaction Biology Corp. (Malvern Pa.) to validate its inhibitory activity and to determine its EC50 for SUV39H1. F5446 was assayed in a 10-dose EC50 mode with 3-fold serial dilutions using recombinant human SUV39H1 protein as the methyltransferase, S-(methyl-3H) Adenosyl-L-Methionine as the substrate, and H3 peptide (N1-21) as the template in the presence of indicated doses of F5446. The EC50 was calculated with Prizm Program.

SW620 and LS411N cells [8] = assay: Sensitisation of colon carcinoma cells to FasL-induced apoptosis; format: cell-based, human; details: F5446 at sublethal dose plus FasL, 3 days
Description: SW620 and LS411N cells were cultured in the presence of F5446 and FasL, either alone or in combination, for 3 days. Cells were stained with PI and Annexin V and analyzed for apoptosis.
Apoptotic cell death was calculated as the difference between the percentage of PI^+ Annexin V^+ cells in the presence of F5446, FasL, or both and the percentage of PI^+ Annexin V+ cells in the absence of F5446 or FasL.

[9] = system: MC38 and CT26 colon carcinoma tumors; assay: Colon carcinoma growth in vivo, MC38 in C57BL/6 and CT26 in BALB/c mice; details: F5446 10 mg/kg
Description: Two different tumor cells were injected into two different strains of mice. MC38 cells (1.5×10^5 cells/mouse) were injected to thirty C57BL/6 mice subcutaneously. CT26 cells (2×10^5 cells/mouse) were injected to thirty BALB/c mice subcutaneously. Twenty mice from each strain with relatively similar sizes of tumors were randomized into four groups at day 8 after tumor cell injection. The four groups of tumor-bearing mice were treated with IgG/solvent (control), […] (10 mg/kg), anti-PD-1 mAb ([…]), and […]+anti-PD-1 mAb, respectively, every two days for 14 days.

[10] = system: CD8+ CTLs from CT26 tumor tissues; assay: H3K9me3 ChIP and qPCR in tumor-infiltrating CD8+ CTLs of CT26 tumor bearing mice; format: in vivo; details: CD8+ CTLs from CT26 tumors, F5446-treated mice
Description: CD8^+ CTLs were isolated from tumor tissues of the control and the F5446-treated groups of CT26 tumor bearing mice (from Example 13). ChIP analysis of H3K9me3 level in the promoter regions of GZMB, PRF1, FASLG and IFNG was performed. Further a qPCR analysis was performed to determine the expression levels of all four promoter regions.

[11] = mouse serum, 10 mg/kg every 2 days for 6 days
[12] = MC38/C57BL/6 and CT26/BALB/c, anti-PD-1 mAb 200 mg/mouse, every two days for 14 days

## O=P1(N(CCCl)CCCl)NCCCO1 (stereo not shown) [CTX, Cyclophosphamide]
AB1-HA tumor model
  cure rate: 75%

## CN1C(=O)[C@@]23C[C@]4([C@]56C[C@@]78SS[C@@](CO)(C(=O)N7[C@H]5Nc5ccccc56)N(C)C8=O)c5ccccc5N[C@@H]4N2C(=O)[C@]1(CO)SS3 [chaetocin]
[1]
  toxicity in vivo: toxic in vivo

## CN1C(=O)[C@]23SS[C@@]1(C)C(=O)N2[C@H]1Nc2ccccc2[C@@]1([C@@]12c4ccccc4N[C@@H]1N1C(=O)[C@@]4(C)SS[C@]1(C(=O)N4C)[C@H]2O)[C@@H]3O [verticillin A]
[1]
  toxicity in vivo: toxic in vivo

## COC(=O)c1cc2c(n1S(=O)(=O)c1ccc(Cl)cc1)C(=O)C(=O)c1[nH]cc(C(=O)OCc3ccccc3)c1-2 [F5446, 1-Benzyl 7-methyl 6-(4-chlorobenzenesulfonyl)-4,5-dioxo-3H,4H,5H,6H-pyrrolo[3,2-e]indole-1,7-dicarboxylate]
[2]
  H3K9me3 at the FAS promoter region: inhibits H3K9me3 at the FAS promoter region
[3]; mice, 10 mg/kg body weight every 2 days for 6 days
  survival rate: 100%
[3]; mice, 10 mg/kg every 2 days for 6 days
  liver enzyme profile, overall finding: did not cause toxic levels of liver enzymes in vivo
[3]; [11]
  ALP: 60.3 U/L
  ALT: 71.3 U/L
  AST: 444.3 U/L
  Albumin: 3.3 g/dL
  Cholesterol: 119 mg/dL
  GGT: <3 U/L
  Total Bilirubin: 0.1 mg/dL
  Total protein: 5.7 g/dL
[4]
  tumor cell surface Fas expression (MFI): up-regulated tumor cell surface Fas expression
SW620 and LS411N cells [5]
  apoptotic cell death: induced human colon carcinoma cell death in a dose-dependent manner
[6]; F5446 50 nM, 2 days, ChIP
  H3K9me3 levels in the promoter regions of GZMB, PRF1, FASLG and IFNG: reduced H3K9me3 levels
[6]; increasing doses of F5446
  expression of GZMB, PRF1, FASLG and IFNG: increased expression of all four effector genes in a dose-dependent manner
[7]
  EC50: 496 nM
SW620 and LS411N cells [8]
  sensitivity to FasL-induced apoptosis: significantly increased human colon carcinoma cells to FasL-induced apoptosis
[9]; [12]
  established tumor growth over time (tumor volume): suppressed the established tumor growth in a time-dependent manner
  tumor growth as measured by tumor size and tumor weight: significantly reduced tumor growth
[9]; tumor tissues of C57BL/6 and BALB/c mice
  expression levels of granzymeB, perforin, FasL and IFNγ in tumor tissues (qPCR): significantly increased
[10]
  expression levels of granzymeB, perforin, FasL and IFNγ in tumor-infiltrating CTLs (qPCR): significantly increased
[10]; ChIP
  H3K9me3 levels in the promoter regions of GZMB, PRF1, FASLG and IFNG in tumor-infiltrating CTLs: decreased H3K9me3 levels
